Measurements published in US12262710B2, “Fungicidal compounds” (SYNGENTA CROP PROTECTION AG, priority 2019, dated 2025).

Key:
Puccinia recondita = experiment: Example C: comparative activity against Puccinia recondita (brown rust), curative, wheat leaf segments; format: in vivo; conditions: 8 dpi
Protocol: Method; Wheat leaf segments are placed on agar in multiwell plates (24-well format). The leaf segments are inoculated with a spore suspension of the fungus and sprayed with test solutions 1 day after inoculation. After appropriate incubation the activity of a compound is assessed 8 dpi (days after inoculation) as curative fungicidal activity. The data are presented as the percentage of disease control of each compound for the biological tests and testing rates described below in table H.

Phakopsora pachyrhizi [1] = experiment: Example D: comparative activity against Phakopsora pachyrhizi (soybean rust), soybean plants sprayed, leaf disks cut from treated plants; format: in vivo; conditions: 0.1% OCHIMA, leaf disks cut one day after application, approx. 12 dpi
Protocol: Method: Soybean plants are sprayed in a spray chamber with formulated DMSO compound solutions which are diluted to the appropriate concentration with 0.1% […] (adjuvant comprising polyethoxylated sorbitol hexaoleate and tris(2-ethylhexyl) phosphate) just before spraying. Leaf disks are cut from treated plants and placed on agar into 24-well plates one day after application. After, the leaf disks are inoculated with a spore suspension of the fungus. After appropriate incubation the activity of a compound is assessed approx. 12 dpi (days after inoculation) as preventive fungicidal activity. The data are presented as the percentage of disease control of each compound for the biological tests and testing rates described below in Table 1.

Phakopsora pachyrhizi [2] = experiment: Example E: comparative activity against Phakopsora pachyrhizi (soybean rust), soybean leaf disks sprayed; format: in vivo; conditions: 0.025% Tween20, approx. 12 dpi
Protocol: Method: Compounds to be tested are prepared as DMSO solutions which are diluted to the appropriate concentration with 0.025% Tween20 just before spraying. Soybean leaf disks are placed on agar in multiwell plates (24-well format) and sprayed with test solutions. After drying, the leaf disks are inoculated with a spore suspension of the fungus. After appropriate incubation the activity of a compound is assessed approx. 12 dpi (days after inoculation) as preventive fungicidal activity. The data are presented as the percentage of disease control of each compound for the biological tests and testing rates described below in Table J.

[3] = system: Erysiphe graminis f. sp. tritici; experiment: Erysiphe graminis f. sp. tritici (wheat powdery mildew), wheat leaf segments, preventive; format: in vivo; conditions: Blumeria graminis, foliar, 168 h, 7 dpi, compared to untreated control
Protocol: (§1) Wheat leaf segments are placed on agar in multiwell plates (24-well format) and sprayed with test solutions. After drying, the leaf disks are inoculated with spores of the fungus. After appropriate incubation the activity of a compound is assessed 7 dpi (days post inoculation) as preventive fungicidal activity.

Monographella nivalis = Monographella nivalis syn. Microdochium nivale (snow mould, foot rot of cereals), liquid culture growth inhibition; format: cell-based; conditions: nutrient broth (PDB), 72 hrs, photometric at 620 nm, compared to untreated control
Protocol: Conidia of the fungus from cryogenic storage were directly mixed into nutrient broth (PDB potato dextrose broth). A DMSO solution of the test compounds was placed into a microtiter plate (96-well format) and the nutrient broth containing the fungal spores was added to it. The test plates were incubated at 24° C. and the inhibition of growth was determined photometrically after 72 hrs at 620 nm. […] Cercospora arachidicola (Brown Leaf Spot of Peanut): […]

Mycosphaerella arachidis = Mycosphaerella arachidis syn. Cercospora arachidicola (brown leaf spot of peanut), liquid culture growth inhibition; format: cell-based; conditions: nutrient broth (PDB), approximately 5-6 days, photometric at 620 nm, compared to untreated control
Protocol: Conidia of the fungus from cryogenic storage were directly mixed into nutrient broth (PDB potato dextrose broth). A DMSO solution of the test compounds was placed into a microtiter plate (96-well format) and the nutrient broth containing the fungal spores was added to it. The test plates were incubated at 24° C. and the inhibition of growth was determined photometrically after approximately 5-6 […] at 620 nm.

[4] = system: Puccinia recondita f. sp. tritici; experiment: Puccinia recondita (brown rust), preventative, wheat leaf segments; format: in vivo; conditions: foliar, 192 h, 8 dpi, compared to untreated control
Protocol: as §1, with “segments” for “disks”, “a spore suspension” for “spores”, “8” for “7”, “after” for “post”, “preventative” for “preventive”

Glomerella lagenarium = Glomerella lagenarium syn. Colletotrichum lagenarium (anthracnose of cucurbits), liquid culture growth inhibition; format: cell-based; conditions: Colletotrichum orbiculare, nutrient broth (PDB), 72 hrs, photometric at 620 nm, compared to untreated control
Protocol: Glomerella lagenarium Syn. Colletotrichum lagenarium (Anthracnose of Cucurbits): Conidia of the fungus from cryogenic storage were directly mixed into nutrient broth (PDB potato dextrose broth). A DMSO solution of the test compounds was placed into a microtiter plate (96-well format) and the nutrient broth containing the fungal spores was added to it. The test plates were incubated at 24° C. and the inhibition of growth was determined photometrically after 72 hrs at 620 nm. […]

Plasmopara viticola = Plasmopara viticola (downy mildew of grapevine), grape vine leaf disks, preventive; format: in vivo; conditions: foliar, 168 h, 7 dpi, compared to untreated control
Protocol: as §1, with “Grape vine” for “Wheat”, “disks” for “segments”, “a spore suspension” for “spores”, “after” for “post”

Phakopsora pachyrhizi [5] = experiment: Phakopsora pachyrhizi (soybean rust), soybean leaf disks, preventive; format: in vivo; conditions: foliar, 288 h, approx. 12 dpi, compared to untreated control
Protocol: as §1, with “Soybean” for “Wheat”, “disks” for “segments”, “a spore suspension” for “spores”, “approx. 12” for “7”, “after” for “post”

[6] = system: Puccinia recondita f. sp. tritici; experiment: Puccinia recondita (brown rust), curative, wheat leaf segments; format: in vivo; conditions: foliar, 192 h, sprayed 1 day after inoculation, 8 dpi, compared to untreated control
Protocol: Wheat leaf segments are placed on agar in multiwell plates (24-well format). The leaf segments are inoculated with a spore suspension of the fungus and sprayed with test solutions 1 day after inoculation. After appropriate incubation the activity of a compound is assessed 8 dpi (days after inoculation) as curative fungicidal activity.

Pyricularia oryzae = experiment: whole plant or invertebrate; format: in vivo; conditions: foliar, 120 h, read-out: control of Pyricularia oryzae

Compound	pest or weed control at 200 ppm [3]	inhibition of growth at 20 ppm (Monographella nivalis)	inhibition of growth at 20 ppm (Mycosphaerella arachidis)	pest or weed control at 200 ppm [4]	inhibition of growth at 20 ppm (Glomerella lagenarium)	pest or weed control at 200 ppm (Plasmopara viticola)	further results
CO/C=C(\Oc1cc(C#CC2CCCCC2)ccc1C)C(=O)OC [Compound X-1, reference compound]							control (%) Puccinia recondita (Brown rust), curative (Puccinia recondita; 20 ppm): 0%; control (%) Puccinia recondita (Brown rust), curative (Puccinia recondita; 60 ppm): 0%; control (%) Puccinia recondita (Brown rust), curative (Puccinia recondita; 200 ppm): 0%; control (%) Phakopsora pachyrhizi (Soybean rust) (Phakopsora pachyrhizi [1]; 6 ppm): 0%; control (%) Phakopsora pachyrhizi (Soybean rust) (Phakopsora pachyrhizi [1]; 20 ppm): 0%; control (%) Phakopsora pachyrhizi (Soybean rust) (Phakopsora pachyrhizi [1]; 60 ppm): 0%; control (%) Phakopsora pachyrhizi (Soybean rust) (Phakopsora pachyrhizi [1]; 200 ppm): 63%; control (%) Phakopsora pachyrhizi (Soybean rust) (Phakopsora pachyrhizi [2]; 0.6 ppm): 0%; control (%) Phakopsora pachyrhizi (Soybean rust) (Phakopsora pachyrhizi [2]; 2 ppm): 0%; control (%) Phakopsora pachyrhizi (Soybean rust) (Phakopsora pachyrhizi [2]; 6 ppm): 35%; control (%) Phakopsora pachyrhizi (Soybean rust) (Phakopsora pachyrhizi [2]; 20 ppm): 80%; control (%) Phakopsora pachyrhizi (Soybean rust) (Phakopsora pachyrhizi [2]; 60 ppm): 100%; control (%) Phakopsora pachyrhizi (Soybean rust) (Phakopsora pachyrhizi [2]; 200 ppm): 100%
CO/C=C(\Oc1cccc(C(C)(C)C)c1)C(=O)OC [Compound X-2, reference compound]							control (%) Puccinia recondita (Brown rust), curative (Puccinia recondita; 20 ppm): 0%; control (%) Puccinia recondita (Brown rust), curative (Puccinia recondita; 60 ppm): 0%; control (%) Puccinia recondita (Brown rust), curative (Puccinia recondita; 200 ppm): 0%; control (%) Phakopsora pachyrhizi (Soybean rust) (Phakopsora pachyrhizi [1]; 6 ppm): 0%; control (%) Phakopsora pachyrhizi (Soybean rust) (Phakopsora pachyrhizi [1]; 20 ppm): 0%; control (%) Phakopsora pachyrhizi (Soybean rust) (Phakopsora pachyrhizi [1]; 60 ppm): 0%; control (%) Phakopsora pachyrhizi (Soybean rust) (Phakopsora pachyrhizi [1]; 200 ppm): 0%; control (%) Phakopsora pachyrhizi (Soybean rust) (Phakopsora pachyrhizi [2]; 0.6 ppm): 0%; control (%) Phakopsora pachyrhizi (Soybean rust) (Phakopsora pachyrhizi [2]; 2 ppm): 0%; control (%) Phakopsora pachyrhizi (Soybean rust) (Phakopsora pachyrhizi [2]; 6 ppm): 0%; control (%) Phakopsora pachyrhizi (Soybean rust) (Phakopsora pachyrhizi [2]; 20 ppm): 0%; control (%) Phakopsora pachyrhizi (Soybean rust) (Phakopsora pachyrhizi [2]; 60 ppm): 10%; control (%) Phakopsora pachyrhizi (Soybean rust) (Phakopsora pachyrhizi [2]; 200 ppm): 10%
CO/C=C(\Oc1cc(C2CCC(C(F)(F)F)CC2)ccc1C)C(=O)OC (centres unmarked) [E.1, methyl (Z)-3-methoxy-2-[2-methyl-5-[4-(trifluoromethyl)cyclohexyl]phenoxy] prop-2-enoate]	≥ 80%	≥ 80%	≥ 80%	≥ 80%			
CO/C=C(\Oc1cc(C2CCCCC2)ccc1F)C(=O)OC [E.11, methyl (Z)-2-(5-cyclohexy1-2-fluoro-phenoxy)-3-methoxy-prop-2-enoate]	≥ 80%	≥ 80%	≥ 80%		≥ 80%	≥ 80%	
CO/C=C(\Oc1cc(C2=CCCCCC2)ccc1C)C(=O)OC [F.5, methyl (Z)-2-[5-(cyclohepten-1-yl)-2-methyl-phenoxy]-3-methoxy-prop-2-enoate]	≥ 80%	≥ 80%	≥ 80%		≥ 80%	≥ 80%	
CO/C=C(\Oc1cc(C2=CCCC2)ccc1C)C(=O)OC [F.4, methyl (Z)-2-[5-(cyclopenten-l-yI)-2-methyl-phenoxy]-3-methoxy-prop-2-enoate]	≥ 80%	≥ 80%	≥ 80%	≥ 80%	≥ 80%	≥ 80%	pest or weed control at 60 ppm (Phakopsora pachyrhizi [5]): ≥ 70%
CO/C=C(\Oc1cc(C2CCCCC2)ccc1Br)C(=O)OC [E.8, methyl (Z)-2-(2-bromo-5-cyclohexyl-phenoxy)-3-methoxy-prop-2-enoate]	≥ 80%	≥ 80%	≥ 80%	≥ 80%		≥ 80%	
CO/C=C(\Oc1cc(C2CCC(C(C)C)CC2)ccc1C)C(=O)OC (centres unmarked) [E.17, methyl (Z)-2-[5-(4-isopropylcyclohexyl)-2-methyl-phenoxy]-3-methoxy-prop-2-enoate]	≥ 80%	≥ 80%	≥ 80%		≥ 80%		
CO/C=C(\Oc1cc(C2CCC(OC)CC2)ccc1C)C(=O)OC (centres unmarked) [E.19, methyl (Z)-3-methoxy-2-[5-(4-methoxycyclohexyl)-2-methyl-phenoxy]prop-2-enoate]	≥ 80%	≥ 80%	≥ 80%	≥ 80%	≥ 80%	≥ 80%	pest or weed control at 200 ppm [6]: ≥ 80%
CO/C=C(\Oc1cc(C2=CCC(O)CC2)ccc1C)C(=O)OC (centres unmarked) [F.8, methyl (Z)-2-[5-(4-hydroxycyclohexen-1-yl)-2-methyl-phenoxy]-3-methoxy-prop-2-enoate]	≥ 80%	≥ 80%	≥ 80%	≥ 80%			
CO/C=C(\Oc1cc(C2CCCCC2)ccc1OC)C(=O)OC [E.10, methyl (Z)-2-(5-cyclohexy1-2-methoxy-phenoxy)-3-methoxy-prop-2-enoate]	≥ 80%	≥ 80%	≥ 80%	≥ 80%		≥ 80%	
CO/C=C(\Oc1cc(C2CCC(F)(F)CC2)ccc1C)C(=O)OC [E.6, methyl (Z)-2-[5-(4,4-difluorocyclohexyl)-2-methyl-phenoxy]-3-methoxy-prop-2-enoate]	≥ 80%	≥ 80%	≥ 80%	≥ 80%	≥ 80%	≥ 80%	pest or weed control at 200 ppm (Pyricularia oryzae): ≥ 80%
CO/C=C(\Oc1cc(C2CCCCCC2)ccc1C)C(=O)OC [E.3, methyl (Z)-2-(5-cyclohepty1-2-methyl-phenoxy)-3-methoxy-prop-2-enoate]	≥ 80%	≥ 80%	≥ 80%	≥ 80%	≥ 80%	≥ 80%	pest or weed control at 200 ppm (Pyricularia oryzae): ≥ 80%
CO/C=C(\Oc1cc(C2=CCC(C)(C)CC2)ccc1C)C(=O)OC [F.10, methyl (Z)-2-[5-(4,4-dimethylcyclohexen-1-yl)-2-methyl-phenoxy]-3-methoxy-prop-2-enoate]	≥ 80%	≥ 80%	≥ 80%	≥ 80%	≥ 80%	≥ 80%	
